From patent US20200172913A1, “PEPTIDES AND NANOPARTICLES FOR INTRACELLULAR DELIVERY OF VIRUS” (priority 2017, published 2020)
Where no end group is shown, it is not given here. PEG = not defined here; βAla = NCCC(=O)O

Key:
[1] = tested on: HepG2 cells; assay: AAV-5-GFP transduction with CPPs, flow cytometry; assay type: cell-based, human; settings: 200 μM CPP; for cells expressing GFP: AAV-5 MOI of 500, HepG2, 5% in the absence of CPP
Protocol: (§1) In this example different AAV serotypes including AAV 1, AAV2, AAV5, AAV6, AAV8 and AAV9 were tested against human hepatocytes (HepG2) and human neuronal cells (HCN2) in the presence or in the absence of CPPs including ADGN-103a, ADGN-103b, ADGN-100, ADGN-109, ADGN-106, PEP-1, PEP-2, CADY, and TAT-HA2.
(§2) AAV-1, AAV-2, AAV-5, and AAV-6 viruses encoding green fluorescent protein were obtained from Cell Biolabs Inc and AAV-8 from Vector Biolabs. Stock solutions of virus were obtained at 1χ10^13 GC/ml in PBS/0.01% and diluted 50-fold to 2×10^11 GC/ml before use.
(§3) AAV-1, AAV-2, AAV-5, and AAV6 encoding green fluorescent protein were used at low MOI of 500 (1-2×10^7 PFU) and AAV-8 at MOI of 1000 (2-4×10^7 PFU). HepG2 and HCN2 cells (1 10^6 cells per well) were cultured in a 24 well plate culture dish format. For MOI of 1000, 5 μl of AAV virus diluted solutions were preincubated in PBS with increasing concentration of CPPs ranging from 0.1 to 200 μM for 30 min. For MOI of 500, 2.5 μl of AAV virus diluted solutions were preincubated in PBS with increasing concentration of CPPs ranging from 0.1 to 200 μM for 30 min. 200 μl of AAV or CPP/AAV complex solutions were added to cultured cells (1×10^6 cells per well). Cells are treated with either free AAV or CPP/AAV complexes for 4 h. and then the medium is replaced with fresh medium.
(§4) Viral mediated transgene expression was monitored by flow cytomety 2 days post-infection in HepG2 and Human neuronal HCN2. The percentage of GFP expressing cells were detected by flow cytometry and the increase of AAV infectivity was calculated based on the number of GFP-positive cells. Results are reported in FIGS. 5A-5D, 6A-6D, 7A-7D, 8A-8D, and 9A-9D.

[2] = tested on: HCN2 cells; assay: AAV-5-GFP transduction with CPPs, flow cytometry; assay type: cell-based, human; settings: 200 μM CPP; for cells expressing GFP: AAV-5 MOI of 500, HCN2, 5% in the absence of CPP; for increase of AAV-5 efficiency: MOI of 500, HCN2
Protocol: as §1, §2, §3, §4

[3] = tested on: HepG2 cells; assay: AAV-8-GFP transduction with CPPs, flow cytometry; assay type: cell-based, human; settings: 200 μM CPP, AAV-8 MOI of 1000, HepG2; 5% in the absence of CPP
Protocol: as §1, §2, §3, §4

[4] = tested on: HCN2 cells; assay: AAV-8-GFP transduction with CPPs, flow cytometry; assay type: cell-based, human; settings: 200 μM CPP, AAV-8 MOI of 1000, HCN2; 5% in the absence of CPP
Protocol: as §1, §2, §3, §4

[5] = tested on: HepG2 cells; assay: AAV-6-GFP transduction with CPPs, flow cytometry; assay type: cell-based, human; settings: 200 μM CPP; for cells expressing GFP: AAV-6 MOI of 500, HepG2, 5% in the absence of CPP; for increase of AAV-6 efficiency: MOI of 500, HepG2
Protocol: as §1, §2, §3, §4

[6] = tested on: HCN2 cells; assay: AAV-6-GFP transduction with CPPs, flow cytometry; assay type: cell-based, human; settings: for cells expressing GFP: 200 μM of CPP, AAV-6 MOI of 500, HCN2, 4% in the absence of CPP; for increase of AAV-6 efficiency: 200 μM CPP, MOI of 500, HCN2
Protocol: as §1, §2, §3, §4

[7] = tested on: HepG2 and HCN2 cells; assay: AAV-2-GFP transduction with CPPs, statements for both cell lines; assay type: cell-based, human; settings: for impact on AAV-2 infectivity: 1 μM concentration, both cell lines; for share of the final improvement obtained with 200 μM: 10 μM concentration of CPP, AAV-2, both cell lines
Protocol: as §1, §2, §3, §4

[8] = tested on: HepG2 cells; assay: AAV-1-GFP transduction with CPPs, flow cytometry; assay type: cell-based, human; settings: 200 μM CPP; for cells expressing GFP: AAV-1 MOI of 500, HepG2, 5% in the absence of CPP
Protocol: as §1, §2, §3, §4

[9] = tested on: HCN2 cells; assay: AAV-1-GFP transduction with CPPs, flow cytometry; assay type: cell-based, human; settings: 200 μM CPP; for cells expressing GFP: AAV-1 MOI of 500, HCN2, 5% in the absence of CPP; for increase of AAV-1 efficiency: MOI of 500, HCN2
Protocol: as §1, §2, §3, §4

[10] = tested on: HepG2 cells; assay: AAV-2-GFP transduction with CPPs, flow cytometry; assay type: cell-based, human; settings: 200 μM CPP; for cells expressing GFP: AAV-2 MOI of 500, HepG2, 4% in the absence of CPP
Protocol: as §1, §2, §3, §4

[11] = tested on: HCN2 cells; assay: AAV-2-GFP transduction with CPPs, flow cytometry; assay type: cell-based, human; settings: 200 μM CPP; for cells expressing GFP: AAV-2 MOI of 500, HCN2, 4% in the absence of CPP; for increase of AAV-2 efficiency: MOI of 500, HCN2
Protocol: as §1, §2, §3, §4

[12] = tested on: HepG2 and HCN2 cells; assay: AAV-6-GFP transduction with CPPs, statements for both cell lines; assay type: cell-based, human; settings: for impact on AAV-6 infectivity: 1 μM concentration, both cell lines; for share of the final improvement obtained at 200 μM: 10 μM concentration, AAV-6, both cell lines
Protocol: as §1, §2, §3, §4

[13] = tested on: HepG2 and HCN2 cells; assay: AAV-8-GFP transduction with CPPs, statements for both cell lines; assay type: cell-based, human; settings: for impact on AAV-8 infectivity: 1 μM concentration, both cell lines; for share of the final improvement obtained at 200 μM: 10 μM concentration, AAV-8, both cell lines
Protocol: as §1, §2, §3, §4

[14] = tested on: HepG2 and HCN2 cells; assay: AAV-5-GFP transduction with CPPs, statements for both cell lines; assay type: cell-based, human; settings: for impact on AAV-5 infectivity: 1 μM concentration, both cell lines; for share of the final improvement obtained at 200 μM: 10 μM concentration, AAV-5, both cell lines
Protocol: as §1, §2, §3, §4

[15] = tested on: HepG2 and HCN2 cells; assay: AAV-1-GFP transduction with CPPs, statements for both cell lines; assay type: cell-based, human; settings: for impact on AAV-1 infectivity: 1 μM concentration, both cell lines; for share of the final improvement obtained with 200 μM: 10 μM concentration of CPP, AAV-1, both cell lines
Protocol: as §1, §2, §3, §4

[16] = tested on: 293 T cells; assay: AAV-2/PEP-1 peptide particle stability (serum, heparin), GFP expressing cells by flow cytometry; assay type: cell-based; settings: for effect of the modification on AAV/PEP-1 complex stability in serum: high concentration of serum; for reduction of the level of GFP expressing cells (efficacy): particles incubated 1 hour in 50% serum, 50 μM peptide, AAV-2 MOI of 300; for increase of efficacy: standard conditions (no serum, no heparin), vs unmodified PEP-1
Protocol: Stock solutions of peptides were prepared at 2 mg/mL in distilled water or 5% DMSO and sonicated for 10 min in a water bath sonicator then diluted just before use. AAV-2 encoding green fluorescent protein at MOI of 300 was pre-incubated in low salt medium with PEP-1 peptides containing either a specific targeting motif, a PEG or Dopamine moiety at a concentration of 50 μM for 30 min. The AAV-2/peptide particle stability was evaluated in different conditions. Particles were incubated for 1 hour in DMEM medium containing 10, 20 to 50% serum (FSC) or in the presence of heparin (5 and 10 μg). Then AAV alone or PEP-1/AAV complexes were added to cultured 293 T cells in a 24 well plate format. Cells were treated with either free AAV-2 or Peptide/AAV-2 complexes for 4 h, and then the medium was replaced with fresh medium. Viral mediated transgene expression was monitored 2 days post-infection. GFP expressing cells were detected by flow cytometry.

Substance | cells expressing GFP [1] | cells expressing GFP [2] | cells expressing GFP [3] | cells expressing GFP [4] | cells expressing GFP [5] | cells expressing GFP [6] | impact on AAV-2 infectivity [7] | share of the final improvement obtained with 200 μM [7] | cells expressing GFP [8] | cells expressing GFP [9] | cells expressing GFP [10] | cells expressing GFP [11] | impact on AAV-6 infectivity [12] | share of the final improvement obtained at 200 μM [12] | impact on AAV-8 infectivity [13] | share of the final improvement obtained at 200 μM [13] | impact on AAV-5 infectivity [14] | share of the final improvement obtained at 200 μM [14] | impact on AAV-1 infectivity [15] | effect of the modification on AAV/PEP-1 complex stability in serum [16] | also measured
βAKWFERWFREWPRKRR (not fully specified (residue 1, N-terminus); printed as βAKWFERWFREWPRKRR) [ADGN-103a] | 60% | 45% | 52% | 49% | 94% | 65% | significant impact | about 70% | 76% | 75% | 98% | 71% | significant impact | about 70% | significant impact | about 60% | significant impact | about 50% | significant impact | – | share of the final improvement obtained with 200 μM [15]: about 60%
βAKWWERWWREWPRKRR (not fully specified (residue 1, N-terminus); printed as βAKWWERWWREWPRKRR) [ADGN-103b] | 64% | 48% | 60% | 58% | 98% | 67% | significant impact | about 70% | 81% | 78% | 96% | 81% | significant impact | about 70% | significant impact | about 60% | significant impact | about 50% | significant impact | – | increase of AAV-6 efficiency [5]: 30 fold; increase of AAV-6 efficiency [6]: 22 fold; share of the final improvement obtained with 200 μM [15]: about 60%
DOPA-GGGG-KETWWETWWTEWSQPKKKRKV (GGGGKETWWETWWTEWSQPKKKRKV; not fully specified (N-terminus)) [PEP-1-DOPA, Dopamine added to the N-terminus of PEP-1 using a Gly4 linker] | – | – | – | – | – | – | – | – | – | – | – | – | – | – | – | – | – | – | – | stabilized | reduction of the level of GFP expressing cells (efficacy) [16]: 30%; increase of efficacy [16]: 40%
βALRWWLRWASRWFSRWAWWR (not fully specified (residue 1, N-terminus); printed as βALRWWLRWASRWFSRWAWWR) [ADGN-109] | 51% | 37% | 45% | 44% | 82% | 62% | significant impact | about 70% | 61% | 62% | 90% | 58% | significant impact | about 70% | significant impact | about 60% | significant impact | about 50% | significant impact | – | increase of AAV-1 efficiency ([8]; MOI of 500, HepG2): 16 fold; increase of AAV-1 efficiency [9]: 15 fold; share of the final improvement obtained with 200 μM [15]: about 60%
βALWRALWRLWRSLWRLLWKA (not fully specified (residue 1, N-terminus); printed as βALWRALWRLWRSLWRLLWKA) [ADGN-106] | – | – | – | – | – | – | – | – | – | – | – | – | – | – | – | – | – | – | – | – | increase of AAV-5 efficiency [2]: 4 fold; increase of AAV-6 efficiency [5]: about 10 fold; increase of AAV-6 efficiency [6]: 7 fold; increase of AAV-1 efficiency [9]: 7 fold; increase of AAV-2 efficiency [11]: 7 fold
GYVSK-GGGGSKETWWETWWTEWSQPKKKRKV (Ac-GYVSKGGGGSKETWWETWWTEWSQPKKKRKV-cysteamide) [PEP-1 T1] | – | – | – | – | – | – | – | – | – | – | – | – | – | – | – | – | – | – | – | significantly protected | reduction of the level of GFP expressing cells (efficacy) [16]: 27%
KETWWETWWTEWSQPKKKRKVGGGG-GYVSK (Ac-KETWWETWWTEWSQPKKKRKVGGGGGYVSK-cysteamide) [PEP-1 T2] | – | – | – | – | – | – | – | – | – | – | – | – | – | – | – | – | – | – | – | only a moderate effect | –
GLWRALWRLLRSLWRLLWKV [CADY, reference compound] | 11% | 10% | 15% | 12% | 29% | 18% | – | – | 27% | 22% | 23% | 20% | – | – | – | – | – | – | – | – | increase of AAV-5 efficiency ([1]; MOI of 500, HepG2): 3 fold; increase of AAV-5 efficiency [2]: 2 fold; increase of AAV-6 efficiency [6]: 3 fold; increase of AAV-1 efficiency [9]: 3 fold; increase of AAV-2 efficiency ([10]; MOI of 500, HepG2): 5 fold; increase of AAV-2 efficiency [11]: 3 fold
PEG-βAKETWWETWWTEWSQPKKKRKV ({PEG-βAla}-KETWWETWWTEWSQPKKKRKV; reading uncertain) [PEP-1-PEG, PEP-1 mono-PEGylated with 5 kDa PEG at the N-terminal beta Alanine] | – | – | – | – | – | – | – | – | – | – | – | – | – | – | – | – | – | – | – | stabilized | reduction of the level of GFP expressing cells (efficacy) [16]: 30%; increase of efficacy [16]: 40%
